ChEMBL document CHEMBL1150576, “Two new lactones with mosquito larvicidal activity from three Hortonia species” (2001)
Converted amounts (≈) assume the structure as drawn.

Test system: Aedes aegypti
Assay: Larvicidal activity against second instar larvae of Aedes aegypti
Type: functional

| SMILES | LC50 [µg/mL] |
| --- | --- |
| C#CCCCCCCCCCCC1=C[C@H](C)OC1=O | 0.41 (≈ 1.56 µM) |
| C=CCCCCCCCCCCC1=C[C@H](C)OC1=O | 0.47 (≈ 1.78 µM) |
